From patent US9695217B2, “Peptide domains that bind small molecules” (Iowa State University Research Foundation, Inc., priority 2010, dated 2017)
Where two headings read alike, the source gives them in different places.

Tests used:
[1] = Binding strength measured by surface plasmon resonance (BIACOR 3000, Sensor Chip NTA); details: read-out: Kd (dissociation constant for nickel), SPR
[2] = known polyhistidine binding domain, background statement; read-out: molar dissociation constant for nickel; cited from earlier work

Kd [1]: ~0.023 nM
Sequence: YSHHHHHHLAGTA [C26]
Kd [2]: 0.023 nM
